These results are taken from patent US7939558B2, “Compounds having activity in increasing ion transport by mutant-CFTR and uses thereof” (The Regents of the University of California, priority 2004, dated 2011).

Structures are written as SMILES.

ΔF508-CFTR, sequence (P13569 with tags, fused parts or gaps DEL508-508): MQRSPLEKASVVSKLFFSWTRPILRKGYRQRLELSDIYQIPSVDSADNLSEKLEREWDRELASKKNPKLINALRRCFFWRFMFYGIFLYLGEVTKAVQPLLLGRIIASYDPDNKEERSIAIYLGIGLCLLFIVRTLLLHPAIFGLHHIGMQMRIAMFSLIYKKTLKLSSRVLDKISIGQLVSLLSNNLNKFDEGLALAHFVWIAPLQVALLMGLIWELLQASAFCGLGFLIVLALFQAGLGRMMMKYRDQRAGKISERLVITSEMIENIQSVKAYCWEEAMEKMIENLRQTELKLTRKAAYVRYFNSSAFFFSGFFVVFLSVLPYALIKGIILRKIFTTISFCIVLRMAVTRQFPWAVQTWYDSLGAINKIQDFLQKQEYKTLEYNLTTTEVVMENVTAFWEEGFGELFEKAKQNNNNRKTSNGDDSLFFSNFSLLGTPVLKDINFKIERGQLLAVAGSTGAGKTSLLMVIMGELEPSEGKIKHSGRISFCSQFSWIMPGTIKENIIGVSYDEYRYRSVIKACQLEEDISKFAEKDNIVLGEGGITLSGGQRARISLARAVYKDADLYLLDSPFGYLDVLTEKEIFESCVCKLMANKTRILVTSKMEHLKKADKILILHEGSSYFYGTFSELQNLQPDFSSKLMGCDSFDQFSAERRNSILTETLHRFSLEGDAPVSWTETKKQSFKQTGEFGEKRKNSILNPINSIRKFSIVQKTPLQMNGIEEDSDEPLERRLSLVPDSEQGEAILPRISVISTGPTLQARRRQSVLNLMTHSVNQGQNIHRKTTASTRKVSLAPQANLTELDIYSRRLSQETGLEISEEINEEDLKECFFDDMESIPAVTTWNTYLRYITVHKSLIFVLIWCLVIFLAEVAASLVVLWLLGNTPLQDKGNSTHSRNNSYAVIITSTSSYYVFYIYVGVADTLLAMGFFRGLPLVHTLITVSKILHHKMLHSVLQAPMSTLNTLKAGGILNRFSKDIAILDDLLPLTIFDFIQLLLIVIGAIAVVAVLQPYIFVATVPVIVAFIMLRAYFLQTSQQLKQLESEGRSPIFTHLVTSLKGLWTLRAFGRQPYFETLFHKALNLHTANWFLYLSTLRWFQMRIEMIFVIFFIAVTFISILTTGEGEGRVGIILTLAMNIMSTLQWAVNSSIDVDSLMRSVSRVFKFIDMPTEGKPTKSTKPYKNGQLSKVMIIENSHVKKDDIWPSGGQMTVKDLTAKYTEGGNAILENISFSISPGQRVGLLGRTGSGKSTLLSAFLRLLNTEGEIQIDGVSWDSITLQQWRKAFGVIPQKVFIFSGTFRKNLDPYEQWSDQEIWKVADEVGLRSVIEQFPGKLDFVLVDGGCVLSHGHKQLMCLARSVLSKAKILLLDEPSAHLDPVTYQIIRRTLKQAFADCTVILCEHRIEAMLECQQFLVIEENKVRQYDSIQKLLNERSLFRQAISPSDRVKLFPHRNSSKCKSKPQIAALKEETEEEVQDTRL

One data set deals with ΔF508-CFTR (Homo sapiens, UniProt P13569, DEL508-508). The data set is described as follows: Fluorescence (YFP-H148Q/I152L) I− influx assay of ΔF508-CFTR potentiator activity in FRT cells. The arrangement: expressed in transfected cells. It is filed as cell-based. Particulars: sulfonamide containing compounds, 27° C. 24 h, forskolin 20 μM, read-out: Ka. How it is done:
Clonal populations of Fischer rat thyroid (FRT) epithelial cells stably co-expressing human ΔF508-CFTR and the high-sensitivity halide-sensing green fluorescent analog YFP-H148Q/I152L (Galietta et al., A.S. (2001) FEBS Lett. 499, 220-224) were generated by liposome transfection and limiting dilution with Zeocin/G418 selection. More than 100 clones were evaluated for high fluorescence and ΔF508-CFTR plasma membrane targeting after growth at 27° C. for 24 hours. For screening, cells were cultured on plastic in Coon's modified F12 medium supplemented with 10% fetal bovine serum, 2 mM L-glutamine, 100 U/ml penicillin, and 100 μg/ml streptomycin, and plated on black 96-well microplates (Corning-Costar 3904) at 30,000 cells/well. For short-circuit measurements cells were cultured on Snapwell permeable supports (Corning-Costar) at 500,000 cells/insert. Human nasal epithelium cells from CF patients were cultured on Snapwell inserts and allowed to differentiate in a hormone-supplemented medium (Galietta et al., Am. J. Physiol., […]). Some measurements were done using stably transfected FRT cells expressing YFP-H148Q and wildtype- or G551D-CFTR (Galietta et al., (2001) J. Biol. Chem. 276, 19723-19728). Patch clamp experiments were done on ΔF508-CFTR-expressing FRT cells plated in 35-mm Petri dishes.
Screening was carried out using a Beckman integrated system containing a 3-meter robotic arm, CO2 incubator containing microplate carousel, plate-washer, liquid handling workstation, bar code reader, delidding station, plate sealer, and two FluoStar fluorescence plate readers (Galaxy, BMG Lab Technologies), each equipped with dual syringe pumps and HQ500/20X ([…]) excitation and HQ535/30M (535±15 nm) emission filters (Chroma). Software was written in VBA (Visual Basic for Applications) to compute baseline-subtracted fluorescence slopes (giving halide influx rates).
For assay of ΔF508-CFTR potentiator activity the incubator (27° C., 90% humidity, 5% CO2/95% air) was loaded with forty-to-sixty 96-well plates containing FRT cells. After an 18-24 hour incubation plates were washed 3 times with PBS (300 μl/wash) leaving 50 μl PBS. 10 μl of PBS containing 120 μM forskolin was added, and after 5 min test compounds (0.6 μl of 0.25 mM DMSO solution) were added to each well to give 2.5 μM final compound concentrations. After 15 min, 96-well plates were transferred to a plate reader for fluorescence assay. Each well was assayed individually for I^− influx by recording fluorescence continuously (200 ms per point) for 2 seconds (baseline) and then for 12 seconds after rapid (<1 s) addition of 160 μL of isosmolar PBS in which 137 mM Cl^− was replaced by I^−. I^− influx rates were computed from initial fluorescence versus time-curve slopes (determined by 3rd order polynomial regression) after normalization for total fluorescence (background subtracted initial fluorescence). All compound plates contained negative control (DMSO vehicle alone) and positive controls (genistein, 5 μM and 50 μM). Assay analysis indicated a Z′-factor of >0.7 (Zhang et al., J. Biomol. Screen 4:67-73 (1999)).
The high-throughput screen was designed to identify compounds that activated ΔF508-CFTR when expressed at the cell plasma membrane. FRT epithelial cells co-expressing ΔF508-CFTR and a high sensitivity yellow fluorescent protein-based halide indicator were incubated at 27° C. for 24 h to permit ΔF508-CFTR plasma membrane targeting (FIG. 1, panel A). After washing, forskolin (20 μM) and test compounds (2.5 μM) were added to individual wells of 96-well plates. The I^− influx assay was carried out ˜15 min later by measurement of the time course of decreasing YFP fluorescence after creation of an inwardly-directed I^− gradient. A high concentration of forskolin was used to identify ΔF508-CFTR potentiators that may interact directly with ΔF508-CFTR rather than alter cAMP concentration. […]
For the compound `CCN(c1ccccc1)S(=O)(=O)c1ccc2[nH]cc(C(=O)NCc3ccccc3OC)c(=O)c2c1` [Compound S-3], the EC50 was found to be 30 nM. `O=C(NC1CCCCC1)c1c[nH]c2ccc(S(=O)(=O)N3CCc4ccccc43)cc2c1=O` [Compound S-32, 6-(2,3-Dihydro-indole-1-sulfonyl)-4-oxo-1,4-dihydro-quinoline-3-carboxylic acid cyclohexylamide]: the EC50 is 570 nM. The same measure, in the same setting: the result for `CCN(c1ccccc1)S(=O)(=O)c1ccc2[nH]cc(C(=O)NCc3ccc(C)cc3)c(=O)c2c1` [Compound S-33] reads 590 nM; that for `CCOC(=O)C(NC(=O)c1c[nH]c2ccc(S(=O)(=O)N(C)C3CCCCC3)cc2c1=O)C(=O)OCC` [Compound S-34], 590 nM; that for `CCN(c1cccc(C)c1)S(=O)(=O)c1ccc2[nH]cc(C(=O)NCc3ccccc3OC)c(=O)c2c1` [Compound S-35], 600 nM.

As to `CCOCCCNC(=O)c1c[nH]c2ccc(S(=O)(=O)N(C)c3ccccc3CC)cc2c1=O` [Compound S-36], the EC50 worked out at 620 nM. For the compound `C=CCN(c1ccccc1)S(=O)(=O)c1ccc2[nH]cc(C(=O)NCc3ccco3)c(=O)c2c1` [Compound S-37, 6-(Allyl-phenyl-sulfamoyl)-4-oxo-1,4-dihydro-quinoline-3-carboxylic acid (furan-2-ylmethyl)-amide], the EC50 amounted to 650 nM. The same measure, in the same setting: the result for `CN(c1ccc(Cl)cc1F)S(=O)(=O)c1ccc2[nH]cc(C(=O)NCC3CCCO3)c(=O)c2c1` (centres unmarked) [Compound S-38] reads 660 nM; that for `CCN(CC)S(=O)(=O)c1ccc2[nH]cc(C(=O)NCc3ccc(OC)cc3)c(=O)c2c1` [Compound S-39], 660 nM; that for `CCN(c1cccc(C)c1)S(=O)(=O)c1ccc2[nH]cc(C(=O)NCCC(C)C)c(=O)c2c1` [Compound S-40], 720 nM. Same read-out and setting: the result for `CCCCNC(=O)c1c[nH]c2ccc(S(=O)(=O)N(CC)CC)cc2c1=O` [Compound S-41] reads 740 nM.

For the compound `CCc1ccccc1N(C)S(=O)(=O)c1ccc2[nH]cc(C(=O)NCCOC)c(=O)c2c1` [Compound S-43], the EC50 amounted to 770 nM.

`CCC(C)NC(=O)c1c[nH]c2ccc(S(=O)(=O)N(C)c3ccc(Br)cc3)cc2c1=O` (centres unmarked) [Compound S-45]: the EC50 is 810 nM. The same measure, in the same setting: the figure for `CCCNC(=O)c1c[nH]c2ccc(S(=O)(=O)N(C)c3ccc(C)c(C)c3)cc2c1=O` [Compound S-46] is 840 nM. On the same count and under the same terms, the figure for `Cc1ccccc1N(C)S(=O)(=O)c1ccc2[nH]cc(C(=O)NCCC(C)C)c(=O)c2c1` [Compound S-47, 6-(Methyl-o-tolyl-sulfamoyl)-4-oxo-1,4-dihydro-quinoline-3-carboxylic acid (3-methyl-butyl)-amide] is 870 nM. Still for that read-out and setting: the figure for `CCN(c1ccc(F)cc1)S(=O)(=O)c1ccc2[nH]cc(C(=O)NCCCOC)c(=O)c2c1` [Compound S-50] is 1020 nM; for `CCN(c1cccc(C)c1)S(=O)(=O)c1ccc2[nH]cc(C(=O)NCC3CCCO3)c(=O)c2c1` (centres unmarked) [Compound S-51] it is 1110 nM.

Turning to `C=CCNC(=O)c1c[nH]c2ccc(S(=O)(=O)N(C)c3ccccc3CC)cc2c1=O` [Compound S-52], the EC50 was found to be 1140 nM. On the same count and under the same terms, the result for `CCN(c1ccccc1)S(=O)(=O)c1ccc2[nH]cc(C(=O)NC(C)C)c(=O)c2c1` [Compound S-53] reads 1160 nM; that for `CCCCCCCCNC(=O)c1c[nH]c2ccc(S(=O)(=O)N(C)c3ccccc3OCC)cc2c1=O` [Compound S-54], 1160 nM. On the same count and under the same terms, the figure for `CCCNC(=O)c1c[nH]c2ccc(S(=O)(=O)N(C)c3ccc(F)cc3)cc2c1=O` [Compound S-55] is 1250 nM; for `CCCCCCNC(=O)c1c[nH]c2ccc(S(=O)(=O)N(CC)c3ccccc3)cc2c1=O` [Compound S-57] it is 1280 nM. Regarding `CCOC(CNC(=O)c1c[nH]c2ccc(S(=O)(=O)N(C)c3ccccc3CC)cc2c1=O)OCC` [Compound S-58], the EC50 was 1280 nM.

Consider `CCC(C)NC(=O)c1c[nH]c2ccc(S(=O)(=O)N(C)c3ccccc3C)cc2c1=O` (centres unmarked) [Compound S-59], for which the EC50 is 1280 nM. Still for that read-out and setting: the figure for `CCOCCCNC(=O)c1c[nH]c2ccc(S(=O)(=O)N(C)c3ccc(Cl)cc3F)cc2c1=O` [Compound S-60] is 1370 nM; for `COCCCNC(=O)c1c[nH]c2ccc(S(=O)(=O)N(C)c3c(C)cccc3C)cc2c1=O` [Compound S-61] it is 1420 nM. Same read-out and setting: the figure for `CCCNC(=O)c1c[nH]c2ccc(S(=O)(=O)N(C)c3ccc(Cl)cc3F)cc2c1=O` [Compound S-62] is 1450 nM; for `CCCCNC(=O)c1c[nH]c2ccc(S(=O)(=O)N(CC)c3ccc(F)cc3)cc2c1=O` [Compound S-64] it is 1560 nM; for `CCOCCCNC(=O)c1c[nH]c2ccc(S(=O)(=O)N(C)c3ccccc3C)cc2c1=O` [Compound S-65] it is 1660 nM.

For a further data set, the target named is multiple drug resistance protein-1 (MDR-1) (Homo sapiens, UniProt P08183). Briefly: MDR-1 activity by rhodamine 123 accumulation in 9HTEo- and 9HTEo-/Dx cells. Particulars: verapamil 100 μM; P-1 and S-1 5 μM.
Take `COc1ccc(CCN(C)CCCC(C#N)(c2ccc(OC)c(OC)c2)C(C)C)cc1OC` (centres unmarked) [verapamil, reference compound]: the “rhodamine 123 dye accumulation in 9HTEo-/Dx cells” value is “increased significantly”.

Test system in a further data set: not listed separately
Briefly: Pharmacokinetics in rats after intravenous bolus. It is filed as in vivo, rat. Conditions: 5 mg/Kg intravenous bolus, plasma. How it is done: A bolus of potentiator-containing solution (5 mg/kg) was administered intravenously in rats over 1 min (male Sprague-Dawley rats, 360-420 grams) by a jugular vein catheter. Arterial blood samples (1 ml) were obtained at predetermined times for LCMS analysis.
For analysis of blood samples, collected plasma was chilled on ice, and ice-cold acetonitrile (2:1 v:v) was added to precipitate proteins. Samples were centrifuged at 4° C. at 20,000 g for 10 min. […] The eluate was evaporated, and the residue was reconstituted in 100 μl of mobile phase for HPLC analysis. Reversed-phase HPLC separations were carried out using a Supelco C18 column (2.1×100 mm, 3 μm particle size) connected to a solvent delivery system (Waters model 2690, Milford, Mass.). The solvent system consisted of a linear gradient from 20% CH3CN/10 mM KH2PO4, pH 3 to 95% CH3CN/10 mM KH2PO4, pH 3 over 10 min, followed by 6 min at 95% CH3CN/20 mM NH4OAc (0.2 ml/min flow rate). […] The detection limit was 10 nM and recovery was >90%. Mass spectra were acquired on a mass spectrometer (Alliance HT 2790+ZQ) using negative ion detection, scanning from 200 to 800 Da (Sonawane et al., J. Pharm. Sci. 94:134-143 (2004)).
As to `CCN(c1ccccc1)S(=O)(=O)c1ccc2[nH]cc(C(=O)NCc3ccccc3OC)c(=O)c2c1` [Compound S-3], the elimination half-time entry is recorded as “approximately 1.3 hours”.

Test system in a further data set: not listed separately
Briefly: Stability in hepatic microsomes (LCMS). It is filed as in vitro ADME, rat. Conditions: 10 μM, 1 hour, 37° C., presence of NADPH. How it is done:
A minor metabolite was also detected at 7.43 min with m/z 428. […] Compound S-3 was ˜35% degraded after a 1 hour incubation with liver microsomes in presence of NADPH.
With `CCN(c1ccccc1)S(=O)(=O)c1ccc2[nH]cc(C(=O)NCc3ccccc3OC)c(=O)c2c1` [Compound S-3], the “compound metabolized / degraded” value is listed as around 35%.
